According to patent US20260055097A9, “NRF2 PROTEIN DEGRADERS” (Ganymede Oncology, Inc., priority 2022, published 2026):
Read-outs that look alike come from different tables or passages of the source.

What was measured:
Format in all cases: cell-based
LK-2 = experiment: Cancer cell viability, LK-2 (CellTiter-Glo); details: LK-2 cells, 3 days, read-out: Cellular IC50 (μM) LK-2
Method: Representative Compounds of the Disclosure were tested in A549 (Vendor: ATCC; Cat #CCL-185; Description: lung, carcinoma) and/or LK-2 (Vendor: Riken; Cat #RCB1970; Description: lung, squamous cell carcinoma) cellular viability assays according to the following general protocol. • 1. Observed the cells under microscope. • 2. Aspirated the media and added 5 mL trypsin and incubate for 3 mins. • 3. Added 10 mL fresh media and harvested all the cells in to 15 mL tubes. • 4. Centrifuged the cells at 1000 rpm for 5 mins. • 5. Re-suspended the cells with 11 mL media and took 1 mL to determine the cell number and viability. • 6. Prepared cells suspension at 20 K/mL (A549) or 35 K/mL (LK-2) • 7. Seeded the cells into 96-well plate and incubated for overnight. • 8. Added compounds into each well with a HPD300 machine (nine three-fold dilutions typically starting at 30 µM final concentration) and incubated for 3 days. • 9. After 3 days, took out the plates from the incubator and observed the cells under microscope. • 10. Passed a film at the bottom of the plates. • 11. Equilibrated the plate and its contents at room temperature for approximately 30 minutes. • 12. Thawed the CellTiter-Glo® Buffer and equilibrated to room temperature prior to use. • 13. Equilibrated the lyophilized CellTiter-Glo® Substrate to room temperature prior to use. • 14. Transferred 100 ml of CellTiter-Glo® Buffer into the amber bottle containing CellTiter-Glo® Substrate to reconstituted the lyophilized enzyme/substrate mixture. • 15. Mixed by gently vortexing, swirling or inverting the contents to obtain a homogeneous solution. • 16. Added 100 μL CellTiter-Glo® Reagent into each well • 17. Mixed contents for 15 minutes on an orbital shaker to induce cell lysis. • 18. Recorded luminescence with EnSpire machine. • 19. Passed the raw data into the file and analyzed the data with XLfit software.

A549 = experiment: Cancer cell viability, A549 (CellTiter-Glo); details: Homo sapiens, 72 h, A549 cells, 3 days, read-out: Cellular IC50 (μM) A549
How it was run: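 A549 and/or LK-2 lung carcinoma cells seeded overnight (20 K/mL A549; 35 K/mL LK-2), then exposed to compound for 3 days. Viability read as CellTiter-Glo luminescence after 15 min lysis; data fitted to curves.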

Nrf2 = target: T1, Nrf2 (Homo sapiens, UniProt Q16236); experiment: Nrf2 degradation in A549 HiBiT-Nrf2 cells, Nano-Glo HiBiT lytic detection (HiBiT readout); parameters: host or cells: A549 HiBiT-Nrf2 cells (engineered line bought from Promega)
T1 sequence (Q16236 1-605): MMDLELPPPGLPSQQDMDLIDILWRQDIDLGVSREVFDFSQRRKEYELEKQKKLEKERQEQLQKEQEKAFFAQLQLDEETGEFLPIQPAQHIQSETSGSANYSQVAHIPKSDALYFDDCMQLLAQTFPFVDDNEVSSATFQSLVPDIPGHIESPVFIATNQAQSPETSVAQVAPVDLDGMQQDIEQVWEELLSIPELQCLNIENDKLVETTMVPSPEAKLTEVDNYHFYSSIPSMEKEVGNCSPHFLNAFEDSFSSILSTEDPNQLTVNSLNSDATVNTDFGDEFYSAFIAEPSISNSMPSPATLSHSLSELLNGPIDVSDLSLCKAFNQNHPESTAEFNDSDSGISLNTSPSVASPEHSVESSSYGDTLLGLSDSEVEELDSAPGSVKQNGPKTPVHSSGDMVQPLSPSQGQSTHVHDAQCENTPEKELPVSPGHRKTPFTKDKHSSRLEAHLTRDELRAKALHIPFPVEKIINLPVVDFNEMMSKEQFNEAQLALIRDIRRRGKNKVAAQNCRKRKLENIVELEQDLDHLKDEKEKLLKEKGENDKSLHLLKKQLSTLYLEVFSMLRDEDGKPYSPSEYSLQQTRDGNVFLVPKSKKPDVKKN
Method: A549 HiBiT-Nrf2 cells (Promega, Cat. No. CS3023219) were seeded into 384-well plates at cell density of 5,000 cells/well in 40 μL of cell culture medium (Ham's F-12 Nutrient Mix supplemented with 10% FBS and 1% antibiotic-antimycotic).
The next day, cells were treated with representative Compounds of the Disclosure and incubated for 6 h and 20 h at 37° C., 5% CO2. Staurosporine was used as a control.
At the end of incubation Nrf2 degradation (HiBiT readout) and cell viability (CellTiter-Glo readout) were determined. For HiBiT readout, Nano-Glo HiBiT Reagent mix (Promega, Cat. No. N3050) was added to wells, plates were incubated 2 min on an orbital shaker and incubated at room temperature in the dark for additional 30 minutes. At the end of incubation luminescence was measured using ultrasensitive luminescence mode (Envision, Perkin Elmer).

[1] = 6 h, read-out: DC50 (nM) at 6 h
[2] = 20 h, read-out: DC50 (nM) at 20 h

IC50 (LK-2; Homo sapiens, LK-2, 72 h) [µM] | IC50 (A549) [µM] | DC50 (Nrf2; [1]) [nM] | DC50 (Nrf2; [2]) [nM] | IC50 (LK-2) [µM] | Structure (SMILES)
0.04 | 0.1 | 300 to 3000 | > 3000 | – | Cc1ccccc1C(=O)N1CCc2cc(-c3nc(NC(=O)Cc4cccc(OCCOCCOc5ccc6c(c5)C(=O)N(C5CCC(=O)NC5=O)C6=O)c4)sc3C)ccc21 (centres unmarked) [Cpd. No. 18, 2-(3-(2-(2-((2-(2,6-dioxopiperidin-3-yl)-1,3-dioxoisoindolin-5-yl)oxy)ethoxy)ethoxy)phenyl)-N-(5-methyl-4-(1-(2-methylbenzoyl)indolin-5-yl)thiazol-2-yl)acetamide]
0.06 | 0.3 | 300 to 3000 | 300 to 3000 | – | Cc1ccccc1C(=O)N1CCc2cc(-c3nc(NC(=O)Cc4cccc(OCCOCCNc5ccc6c(c5)C(=O)N(C5CCC(=O)NC5=O)C6=O)c4)sc3C)ccc21 (centres unmarked) [Cpd. No. 20, 2-(3-(2-(2-((2-(2,6-dioxopiperidin-3-yl)-1,3-dioxoisoindolin-5-yl)amino)ethoxy)ethoxy)phenyl)-N-(5-methyl-4-(1-(2-methylbenzoyl)indolin-5-yl)thiazol-2-yl)acetamide]
0.03 | 0.08 | < 300 | < 300 | – | Cc1sc(NC(=O)Cc2ccc(F)c(OCCOCCNc3ccc4c(c3)C(=O)N(C3CCC(=O)NC3=O)C4=O)c2)nc1-c1ccc2c(c1)CCN2C(=O)C1CC1 (centres unmarked) [Cpd. No. 27, N-(4-(1-(cyclopropanecarbonyl)indolin-5-yl)-5-methylthiazol-2-yl)-2-(3-(2-(2-((2-(2,6-dioxopiperidin-3-yl)-1,3-dioxoisoindolin-5-yl)amino)ethoxy)ethoxy)-4-fluorophenyl)acetamide]
0.01 | 0.03 | < 300 | < 300 | – | Cc1sc(NC(=O)Cc2ccc(F)c(OCCOCCNc3ccc4c(c3)CN(C3CCC(=O)NC3=O)C4=O)c2)nc1-c1ccc2c(c1)CCN2C(=O)C1CC1 (centres unmarked) [Cpd. No. 28, N-(4-(1-(cyclopropanecarbonyl)indolin-5-yl)-5-methylthiazol-2-yl)-2-(3-(2-(2-((2-(2,6-dioxopiperidin-3-yl)-1-oxoisoindolin-5-yl)amino)ethoxy)ethoxy)-4-fluorophenyl)acetamide]
0.01 | 0.05 | < 300 | < 300 | 0.02 | Cc1sc(NC(=O)Cc2ccc(F)c(OCCOCCNc3ccc4c(c3)C(=O)N(C3CCC(=O)NC3=O)C4=O)c2)nc1-c1ccc2c(c1)CCN2C(=O)c1cncn1C (centres unmarked) [Cpd. No. 29, 2-(3-(2-(2-((2-(2,6-dioxopiperidin-3-yl)-1,3-dioxoisoindolin-5-yl)amino)ethoxy)ethoxy)-4-fluorophenyl)-N-(5-methyl-4-(1-(1-methyl-1H-imidazole-5-carbonyl)indolin-5-yl)thiazol-2-yl)acetamide]
> 30 | > 30 | > 3000 | > 3000 | – | Cc1ccccc1C(=O)N1CCc2cc(-c3nc(NC(=O)Cc4cccc(OCCN5CCN(c6cccc7c6C(=O)N(C6CCC(=O)NC6=O)C7=O)CC5)c4)sc3C)ccc21 (centres unmarked) [Cpd. No. 31, 2-(3-(2-(4-(2-(2,6-dioxopiperidin-3-yl)-1,3-dioxoisoindolin-4-yl)piperazin-1-yl)ethoxy)phenyl)-N-(5-methyl-4-(1-(2-methylbenzoyl)indolin-5-yl)thiazol-2-yl)acetamide]
0.01 | 0.03 | < 300 | > 3000 | – | Cc1sc(NC(=O)Cc2cccc(OCCOCCNc3cccc4c3C(=O)N(C3CCC(=O)NC3=O)C4=O)c2)nc1-c1ccc2c(c1)CCN2C(=O)c1cncn1C (centres unmarked) [Cpd. No. 35, 2-(3-(2-(2-((2-(2,6-dioxopiperidin-3-yl)-1,3-dioxoisoindolin-4-yl)amino)ethoxy)ethoxy)phenyl)-N-(5-methyl-4-(1-(1-methyl-1H-imidazole-5-carbonyl)indolin-5-yl)thiazol-2-yl)acetamide]
